Test results from patent US5210193A, “Piperazine derivatives” (American Cyanamid Company, priority 1990, dated 1993).
In brackets after ≈: the same amount, converted by molar mass. Read-outs that look alike come from different tables or passages of the source.

What was measured:
[1] = test system: Staphylococcus aureus Smith; experiment: in vivo antibacterial activity, survival of infected mice (Table III); parameters: species or system Charles River CD-1 mice; details: subcutaneous
Method: Charles River CD-1 mice were infected with either Klebsiella pneumoniae AD or Staphylococcus aureus Smith. A single subcutaneous dose of the test compound was administered 1/2 hour after infection. […] The results appear in Tables II and III, wherein the representative test compounds are identified by the number of their hereinafter described examples.

Citrobacter div. K 82-24 = experiment: in vitro antibacterial MIC, agar plate dilution; assay type: cell-based; details: Citrobacter, DIV.K8224, 18 h, 35° C., read-out: MIC
In short: (§1)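 Read-out is visible growth inhibition on Mueller-Hinton agar dilution plates incubated 18 hours at 35° C after inoculation of ~10^4 CFU (Steers device), with MIC reported in mcg/ml.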

[2] = test system: Enterobacter cloacae K 84-10; experiment: in vitro antibacterial MIC, agar plate dilution; assay type: cell-based; details: Enterobacter cloacae, K8410, 18 h, 35° C., read-out: MIC
In short: as §1

[3] = test system: Enterobacter cloacae MOR 84-30; experiment: in vitro antibacterial MIC, agar plate dilution; assay type: cell-based; details: Enterobacter cloacae, MOR8430, 18 h, 35° C., read-out: MIC
In short: as §1

[4] = test system: Enterobacter cloacae VGH 84-39; experiment: in vitro antibacterial MIC, agar plate dilution; assay type: cell-based; details: Enterobacter cloacae, VGH8439, 18 h, 35° C., read-out: MIC
In short: as §1

[5] = test system: Escherichia coli ATCC 25922; experiment: in vitro antibacterial MIC, agar plate dilution; assay type: cell-based; details: 35° C.
In short: as §1

[6] = test system: Escherichia coli CMC 84-11; experiment: in vitro antibacterial MIC, agar plate dilution; assay type: cell-based; details: Escherichia coli, CMC8411, 18 h, 35° C., read-out: MIC
In short: as §1

[7] = test system: Escherichia coli CMC 84-50; experiment: in vitro antibacterial MIC, agar plate dilution; assay type: cell-based; details: Escherichia coli, CMC8450, 18 h, 35° C., read-out: MIC
In short: as §1

Escherichia coli LL 311 = experiment: in vitro antibacterial MIC, agar plate dilution; assay type: cell-based; details: Escherichia coli, LL311, 18 h, 35° C., read-out: MIC
In short: as §1

[8] = test system: Escherichia coli MOR 84-20; experiment: in vitro antibacterial MIC, agar plate dilution; assay type: cell-based; details: 18 hours, 35° C.
In short: as §1

[9] = test system: Escherichia coli VGH 84-19; experiment: in vitro antibacterial MIC, agar plate dilution; assay type: cell-based; details: 18 hours, 35° C.
In short: as §1

[10] = test system: Klebsiella pneumoniae CMC 84-31; experiment: in vitro antibacterial MIC, agar plate dilution; assay type: cell-based; details: Klebsiella pneumoniae, CMC8431, 18 h, 35° C., read-out: MIC
In short: as §1

[11] = test system: Klebsiella pneumoniae IO 83-5; experiment: in vitro antibacterial MIC, agar plate dilution; assay type: cell-based; details: Klebsiella pneumoniae, IO835, 18 h, 35° C., read-out: MIC
In short: as §1

[12] = test system: Klebsiella pneumoniae MOR 84-24; experiment: in vitro antibacterial MIC, agar plate dilution; assay type: cell-based; details: Klebsiella pneumoniae, MOR8424, 18 h, 35° C., read-out: MIC
In short: as §1

[13] = test system: Morganella morganii CMC 84-37; experiment: in vitro antibacterial MIC, agar plate dilution; assay type: cell-based; details: 18 hours, 35° C.
In short: as §1

[14] = test system: Morganella morganii CMC 84-38; experiment: in vitro antibacterial MIC, agar plate dilution; assay type: cell-based; details: Morganella morganii, CMC8438, 18 h, 35° C., read-out: MIC
In short: as §1

[15] = test system: Morganella morganii MOR 84-45; experiment: in vitro antibacterial MIC, agar plate dilution; assay type: cell-based; details: Morganella morganii, MOR8445, 18 h, 35° C., read-out: MIC
In short: as §1

[16] = test system: Morganella morganii VHG 84-12; experiment: in vitro antibacterial MIC, agar plate dilution; assay type: cell-based; details: Morganella morganii, VHG8412, 18 h, Morganella morganii VHG 84-12 (VGH 84-12 for Example 131), 35° C., read-out: MIC
In short: as §1

[17] = test system: Proteus rettgeri CMC 84-41; experiment: in vitro antibacterial MIC, agar plate dilution; assay type: cell-based; details: Providencia rettgeri, CMC8441, 18 h, 35° C., read-out: MIC
In short: as §1

[18] = test system: Proteus rettgeri IO 83-21; experiment: in vitro antibacterial MIC, agar plate dilution; assay type: cell-based; details: Providencia rettgeri, IO8321, 18 h, 35° C., read-out: MIC
In short: as §1

[19] = test system: Providencia stuarti CMC 83-3; experiment: in vitro antibacterial MIC, agar plate dilution; assay type: cell-based; details: Providencia, CMC833, 18 h, 35° C., read-out: MIC
In short: as §1

[20] = test system: Pseudomonas aeruginosa CMC 83-20; experiment: in vitro antibacterial MIC, agar plate dilution; assay type: cell-based; details: Pseudomonas aeruginosa, CMC8320, 18 h, 35° C., read-out: MIC
In short: as §1

[21] = test system: Pseudomonas aeruginosa K 84-16; experiment: in vitro antibacterial MIC, agar plate dilution; assay type: cell-based; details: Pseudomonas aeruginosa, K8416, 18 h, 35° C., read-out: MIC
In short: as §1

[22] = test system: Pseudomonas aeruginosa LL-1244; experiment: in vitro antibacterial MIC, agar plate dilution; assay type: cell-based; details: Pseudomonas aeruginosa, LL1244, 18 h, 35° C., read-out: MIC
In short: as §1

[23] = test system: Pseudomonas aeruginosa VGH 84-3; experiment: in vitro antibacterial MIC, agar plate dilution; assay type: cell-based; details: Pseudomonas aeruginosa, VGH843, 18 h, 35° C., read-out: MIC
In short: as §1

[24] = test system: Pseudomonas aeruginosa VGH 84-4; experiment: in vitro antibacterial MIC, agar plate dilution; assay type: cell-based; details: Pseudomonas aeruginosa, VGH844, 18 h, 35° C., read-out: MIC
In short: as §1

[25] = test system: Serratia marcescens CMC 83-74; experiment: in vitro antibacterial MIC, agar plate dilution; assay type: cell-based; details: Serratia marcescens, CMC8374, 18 h, 35° C., read-out: MIC
In short: as §1

[26] = test system: Serratia marcescens K 84-18; experiment: in vitro antibacterial MIC, agar plate dilution; assay type: cell-based; details: Serratia marcescens, K8418, 18 h, 35° C., read-out: MIC
In short: as §1

[27] = test system: Serratia marcescens MOR 84-41; experiment: in vitro antibacterial MIC, agar plate dilution; assay type: cell-based; details: Serratia marcescens, MOR8441, 18 h, 35° C., read-out: MIC
In short: as §1

[28] = test system: Serratia marcescens VGH 84-30; experiment: in vitro antibacterial MIC, agar plate dilution; assay type: cell-based; details: Serratia marcescens, VGH8430, 18 h, 35° C., read-out: MIC
In short: as §1

[29] = test system: Staphylococcus aureus CMC 83-131; experiment: in vitro antibacterial MIC, agar plate dilution; assay type: cell-based; details: Staphylococcus aureus, CMC83131, 18 h, 35° C., read-out: MIC
In short: as §1

[30] = test system: Staphylococcus aureus K 82-26; experiment: in vitro antibacterial MIC, agar plate dilution; assay type: cell-based; details: Staphylococcus aureus, K8226, 18 h, 35° C., read-out: MIC
In short: as §1

[31] = test system: Staphylococcus aureus Smith; experiment: in vitro antibacterial MIC, agar plate dilution; assay type: cell-based; details: Staphylococcus aureus, 18 h, 35° C., read-out: MIC
In short: as §1

[32] = test system: Staphylococcus aureus VGH 84-45; experiment: in vitro antibacterial MIC, agar plate dilution; assay type: cell-based; details: Staphylococcus aureus, VGH8445, 18 h, 35° C., read-out: MIC
In short: as §1

[33] = test system: Staphylococcus aureus VGH 84-47; experiment: in vitro antibacterial MIC, agar plate dilution; assay type: cell-based; details: 18 hours, 35° C.
In short: as §1

[34] = test system: Streptococcus faecalis CMC 83-120; experiment: in vitro antibacterial MIC, agar plate dilution; assay type: cell-based; details: Enterococcus faecalis, CMC83120, 18 h, 35° C., read-out: MIC
In short: as §1

[35] = test system: Streptococcus faecalis UCI 85-19; experiment: in vitro antibacterial MIC, agar plate dilution; assay type: cell-based; details: Enterococcus faecalis, UCI8519, 18 h, 35° C., read-out: MIC
In short: as §1

[36] = test system: Streptococcus faecalis UCI 85-30; experiment: in vitro antibacterial MIC, agar plate dilution; assay type: cell-based; details: Enterococcus faecalis, UCI8530, 18 h, 35° C., read-out: MIC
In short: as §1

[37] = test system: Streptococcus faecalis VGH 84-65; experiment: in vitro antibacterial MIC, agar plate dilution; assay type: cell-based; details: Enterococcus faecalis, VGH8465, 18 h, 35° C., read-out: MIC
In short: as §1

[38] = test system: Streptococcus faecalis VGH 84-69; experiment: in vitro antibacterial MIC, agar plate dilution; assay type: cell-based; details: Enterococcus faecalis, VGH8469, 18 h, 35° C., read-out: MIC
In short: as §1

SMILES: FCC1CNCCN1 (stereo not drawn) [Example 23, 2-(Fluoromethyl)piperazine]
- Survival Ratio 7 Days After Infection ([1]; 4 mg/kg single dose): 0/5
- Survival Ratio 7 Days After Infection ([1]; 8 mg/kg single dose): 0/5
- Survival Ratio 7 Days After Infection ([1]; 16 mg/kg single dose): 5/5
- Survival Ratio 7 Days After Infection ([1]; 32 mg/kg single dose): 5/5
- Survival Ratio 7 Days After Infection ([1]; 64 mg/kg single dose): 5/5

SMILES: O=C(O)c1cn(C2CC2)c2cc(N3CCNC(c4ccccn4)C3)c(F)cc2c1=O (stereo not drawn) [Example 128, 1-Cyclopropyl-6-fluoro-1.4-dihydro-4-oxo-7-[3-(2-pyridinyl) -1-piperazinyl]-3-quinolinecarboxylic acid]
- MIC (Citrobacter div. K 82-24): 0.25 µg/mL (≈ 0.612 µM)
- MIC [2]: 0.12 µg/mL (≈ 0.294 µM)
- MIC [3]: 1 µg/mL (≈ 2.45 µM)
- MIC [4]: 0.5 µg/mL (≈ 1.22 µM)
- MIC ([5]; 18 hours): 0.06 µg/mL (≈ 0.147 µM)
- MIC ([5]; Escherichia coli, ATCC25922, 18 h, read-out: MIC): 0.03 µg/mL (≈ 0.0735 µM)
- MIC [6]: 0.06 µg/mL (≈ 0.147 µM)
- MIC [7]: 0.5 µg/mL (≈ 1.22 µM)
- MIC (Escherichia coli LL 311): 0.06 µg/mL (≈ 0.147 µM)
- MIC [8]: 0.25 µg/mL (≈ 0.612 µM)
- MIC [9]: 0.25 µg/mL (≈ 0.612 µM)
- MIC [10]: 0.5 µg/mL (≈ 1.22 µM)
- MIC [11]: 1 µg/mL (≈ 2.45 µM)
- MIC [12]: 1 µg/mL (≈ 2.45 µM)
- MIC [13]: 0.25 µg/mL (≈ 0.612 µM)
- MIC [14]: 0.5 µg/mL (≈ 1.22 µM)
- MIC [15]: 0.5 µg/mL (≈ 1.22 µM)
- MIC [16]: 1 µg/mL (≈ 2.45 µM)
- MIC [17]: 0.12 µg/mL (≈ 0.294 µM)
- MIC [18]: 1 µg/mL (≈ 2.45 µM)
- MIC [19]: > 16 µg/mL
- MIC [20]: 16 µg/mL (≈ 39.2 µM)
- MIC [21]: 16 µg/mL (≈ 39.2 µM)
- MIC [22]: 8 µg/mL (≈ 19.6 µM)
- MIC [23]: > 16 µg/mL
- MIC [24]: 8 µg/mL (≈ 19.6 µM)
- MIC [25]: > 16 µg/mL
- MIC [26]: 0.5 µg/mL (≈ 1.22 µM)
- MIC [27]: 1 µg/mL (≈ 2.45 µM)
- MIC [28]: 8 µg/mL (≈ 19.6 µM)
- MIC [29]: 0.5 µg/mL (≈ 1.22 µM)
- MIC [30]: 4 µg/mL (≈ 9.79 µM)
- MIC [31]: 0.06 µg/mL (≈ 0.147 µM)
- MIC [32]: 0.06 µg/mL (≈ 0.147 µM)
- MIC [33]: 0.25 µg/mL (≈ 0.612 µM)
- MIC [34]: 4 µg/mL (≈ 9.79 µM)
- MIC [35]: 2 µg/mL (≈ 4.9 µM)
- MIC [36]: 8 µg/mL (≈ 19.6 µM)
- MIC [37]: 1 µg/mL (≈ 2.45 µM)
- MIC [38]: 4 µg/mL (≈ 9.79 µM)
